Test results from PubChem BioAssay AID1963829 (Molecular Pharmacology Branch, DTP, NCI, 2024).

Tested on: 935938-334-R-J1-PDC complex spheroid viability
Experiment: Anticancer human tumor 935938-334-R-J1-PDC patient-derived small intestine adenocarcinoma cell line growth inhibition [POLQ]
Conditions: for IC50: curve of first compound; for viability, T/C: stronger effect = lower value
Summary of the method: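 Complex spheroid viability model combining PDC tumour cells with endothelial (HUVEC) and MSC stromal cells. Novobiocin, ART-558 or RP6685 were tested singly and in combination with standard and investigational anticancer drugs. Each was titrated in half-log steps from near clinical Cmax, or from 10 microM where Cmax was unknown.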

[1] = second compound 0.0316 µM, first compound 0.0316 µM
[2] = second compound 0.0316 µM, first compound 0.1 µM
[3] = second compound 0.0316 µM, first compound 0.316 µM
[4] = second compound 0.0316 µM, first compound 1 µM
[5] = second compound 0.0316 µM, first compound 3.16 µM
[6] = second compound 0.0316 µM, first compound 10 µM
[7] = second compound 0.1 µM, first compound 0.0316 µM
[8] = second compound 0.1 µM, first compound 0.1 µM
[9] = second compound 0.1 µM, first compound 0.316 µM
[10] = second compound 0.1 µM, first compound 1 µM
[11] = second compound 0.1 µM, first compound 3.16 µM
[12] = second compound 0.1 µM, first compound 10 µM
[13] = second compound 0.316 µM, first compound 0.0316 µM
[14] = second compound 0.316 µM, first compound 0.1 µM
[15] = second compound 0.316 µM, first compound 0.316 µM
[16] = second compound 0.316 µM, first compound 1 µM
[17] = second compound 0.316 µM, first compound 3.16 µM
[18] = second compound 0.316 µM, first compound 10 µM
[19] = second compound 1 µM, first compound 0.0316 µM
[20] = second compound 1 µM, first compound 0.1 µM
[21] = second compound 1 µM, first compound 0.316 µM
[22] = second compound 1 µM, first compound 1 µM
[23] = second compound 1 µM, first compound 3.16 µM
[24] = second compound 1 µM, first compound 10 µM
[25] = second compound 3.16 µM, first compound 0.0316 µM
[26] = second compound 3.16 µM, first compound 0.1 µM
[27] = second compound 3.16 µM, first compound 0.316 µM
[28] = second compound 3.16 µM, first compound 1 µM
[29] = second compound 3.16 µM, first compound 3.16 µM
[30] = second compound 3.16 µM, first compound 10 µM
[31] = second compound 10 µM, first compound 0.0316 µM
[32] = second compound 10 µM, first compound 0.1 µM
[33] = second compound 10 µM, first compound 0.316 µM
[34] = second compound 10 µM, first compound 1 µM
[35] = second compound 10 µM, first compound 3.16 µM
[36] = second compound 10 µM, first compound 10 µM
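Also: spheroids exposed to drugs for seven days before viability read.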
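For viability, T/C in this document: 100% = DMSO vehicle control wells.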

CCc1cc2c(N3CCc4c(cc(Cn5ccnc5)cc4-c4cn(C)nc4C(F)(F)F)C3=O)cc(C)nc2c(OC)n1 + COC1C(OC(N)=O)C(O)C(Oc2ccc3c(O)c(NC(=O)c4ccc(O)c(CC=C(C)C)c4)c(=O)oc3c2C)OC1(C)C
IC50 (second compound 0.0316 µM): > 10000 nM
IC50 (second compound 0.1 µM): > 10000 nM
IC50 (second compound 0.316 µM): > 10000 nM
IC50 (second compound 1 µM): > 10000 nM
IC50 (second compound 3.16 µM): > 10000 nM
IC50 (second compound 10 µM): > 10000 nM
viability, T/C [1]: 83.6%
viability, T/C [2]: 81.1%
viability, T/C [3]: 77.7%
viability, T/C [4]: 72.9%
viability, T/C [5]: 64.6%
viability, T/C [6]: 64.8%
viability, T/C [7]: 80.8%
viability, T/C [8]: 83.1%
viability, T/C [9]: 74.1%
viability, T/C [10]: 62.8%
viability, T/C [11]: 70.4%
viability, T/C [12]: 64%
viability, T/C [13]: 74.6%
viability, T/C [14]: 72.5%
viability, T/C [15]: 75.5%
viability, T/C [16]: 70.5%
viability, T/C [17]: 75.4%
viability, T/C [18]: 60%
viability, T/C [19]: 64.7%
viability, T/C [20]: 72%
viability, T/C [21]: 90.6%
viability, T/C [22]: 88.9%
viability, T/C [23]: 73.9%
viability, T/C [24]: 71.3%
viability, T/C [25]: 64.4%
viability, T/C [26]: 73.6%
viability, T/C [27]: 73%
viability, T/C [28]: 61.5%
viability, T/C [29]: 74.7%
viability, T/C [30]: 56.4%
viability, T/C [31]: 85.7%
viability, T/C [32]: 68.8%
viability, T/C [33]: 71.8%
viability, T/C [34]: 71.5%
viability, T/C [35]: 78.5%
viability, T/C [36]: 66.7%

COc1cc(C2c3cc4c(cc3C(OC3OC5COC(C)OC5C(O)C3O)C3COC(=O)C23)OCO4)cc(OC)c1O (centres undefined) + Cc1cccc(N(C)C(=O)C2C(O)CCN2c2nc(C)cc(C(F)(F)F)c2C#N)c1
IC50 (second compound 0.0316 µM): 577 nM
IC50 (second compound 0.1 µM): 870 nM
IC50 (second compound 0.316 µM): 743 nM
IC50 (second compound 1 µM): 471 nM
IC50 (second compound 3.16 µM): 397 nM
IC50 (second compound 10 µM): 353 nM
viability, T/C [1]: 89.9%
viability, T/C [2]: 112%
viability, T/C [3]: 65.5%
viability, T/C [4]: 41.6%
viability, T/C [5]: 33.3%
viability, T/C [6]: 32.7%
viability, T/C [7]: 104%
viability, T/C [8]: 94.6%
viability, T/C [9]: 73.7%
viability, T/C [10]: 47.3%
viability, T/C [11]: 33.5%
viability, T/C [12]: 35.9%
viability, T/C [13]: 131%
viability, T/C [14]: 114%
viability, T/C [15]: 74.1%
viability, T/C [16]: 40.6%
viability, T/C [17]: 34.2%
viability, T/C [18]: 33.8%
viability, T/C [19]: 116%
viability, T/C [20]: 78%
viability, T/C [21]: 61%
viability, T/C [22]: 35.9%
viability, T/C [23]: 30.4%
viability, T/C [24]: 30.2%
viability, T/C [25]: 84.2%
viability, T/C [26]: 93.6%
viability, T/C [27]: 54%
viability, T/C [28]: 37.4%
viability, T/C [29]: 28.7%
viability, T/C [30]: 34.7%
viability, T/C [31]: 110%
viability, T/C [32]: 73.7%
viability, T/C [33]: 56.2%
viability, T/C [34]: 33.7%
viability, T/C [35]: 31.1%
viability, T/C [36]: 33.1%
